Data published in patent US7705030B2, “Amino-5-(5-membered)hetero-arylimidazolone compounds and the use thereof for β-secretase modulation” (Wyeth LLC, priority 2005, dated 2010).
pIC50: −log10 of the molar value.

What was measured:
[1] = molecular target: human BACE1 (Homo sapiens, UniProt P56817); test: Fluorescent kinetic assay: Evaluation of BACE-1 Binding Affinity of Test Compounds; assay type: biochemical; conditions: 10 nM enzyme, 25 μM substrate WABC-6, 50 mM Na-Acetate pH 4.5, room temperature
Chain of human BACE1 (P56817 46-501): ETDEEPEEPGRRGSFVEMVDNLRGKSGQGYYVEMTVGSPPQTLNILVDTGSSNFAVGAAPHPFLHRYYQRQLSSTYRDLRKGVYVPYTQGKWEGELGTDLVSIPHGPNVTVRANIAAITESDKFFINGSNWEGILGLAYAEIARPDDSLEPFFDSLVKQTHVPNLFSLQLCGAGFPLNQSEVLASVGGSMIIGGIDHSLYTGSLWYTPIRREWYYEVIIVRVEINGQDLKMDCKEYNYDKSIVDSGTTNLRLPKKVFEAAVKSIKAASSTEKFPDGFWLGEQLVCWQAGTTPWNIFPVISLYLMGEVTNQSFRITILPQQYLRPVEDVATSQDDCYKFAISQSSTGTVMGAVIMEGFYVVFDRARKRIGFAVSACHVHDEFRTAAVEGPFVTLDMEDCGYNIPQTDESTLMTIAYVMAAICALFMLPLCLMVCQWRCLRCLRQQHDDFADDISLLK
In short: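 Run with 10 nM human BACE1 and 25 μM WABC-6 FRET peptide in 50 mM Na-acetate pH 4.5, 0.05% CHAPS, 25% PBS at room temperature. Fluorescence (ex 320/em 420 nm) was read every 40 sec for 30 min, and initial cleavage rates were taken from linear slopes across ≥10 inhibitor concentrations.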

Compound | pIC50 [1] | melting point [°C]
CCNC(=O)c1cc(C2(c3cccc(-c4cccnc4F)c3)N=C(N)N(C)C2=O)cn1CC (stereo not shown) [Example 158] | 7.00 to 8.00 | 132 to 135
CN1C(=O)C(c2cccc(O)c2)(c2cnn(CC(F)(F)F)c2)N=C1N (stereo not shown) [Example 93, 2-amino-5-(3-hydroxyphenyl)-3-methyl-5-[1-(2,2,2-trifluoroethyl)-1H-pyrazol-4-yl]-3,5-dihydro-4H-imidazol-4-one] | < 6.00 | 118 to 120
CCCOc1cccc(C2(c3cccs3)N=C(N)N(C)C2=O)c1 (stereo not shown) [Example 141, 2-Amino-3-methyl-5-(3-propoxyphenyl)-5-thien-2-yl-3,5-dihydro-4H-imidazol-4-one] | 6.00 to 6.96 | 79 to 81
CCCCn1cc(C2(c3cccc(-c4cncnc4)c3)N=C(N)N(C)C2=O)cn1 (stereo not shown) [Example 6, 2-Amino-5-(1-butyl-1H-pyrazol-4-yl)-3-methyl-5-(3-pyrimidin-5-ylphenyl)-3,5-dihydro-4H-imidazol-4-one] | 7.00 to 8.00 | 94 to 98
CCC(=O)c1cc([C@]2(c3cccc(-c4cccnc4F)c3)N=C(N)N(C)C2=O)cn1CC [Example 185, (5S)-2-Amino-5-(1-ethyl-5-propionyl-1H-pyrrol-3-yl)-5-[3-(2-fluoropyridin-3-yl)phenyl]-3-methyl-3,5-dihydro-4H-imidazol-4-one] | 7.00 to 8.00 | 94 to 97
CCC(=O)c1cc(C2(c3cccc(-c4cccc(Cl)c4)c3)N=C(N)N(C)C2=O)cn1CC(F)(F)F (stereo not shown) [Example 204] | 7.00 to 8.00 | 108 to 110
CN1C(=O)C(c2cccc(OCC3CC3)c2)(c2cnn(CC(F)(F)F)c2)N=C1N (stereo not shown) [Example 71, 2-amino-5-[3-(cyclopropylmethoxy)phenyl]-3-methyl-5-[1-(2,2,2-trifluoroethyl)-1H-pyrazol-4-yl]-3,5-dihydro-4H-imidazol-4-one] | 6.00 to 6.96 | 78 to 80
COC(=O)c1cc(C2(c3cccc(-c4ccc5c(c4)OCO5)c3)N=C(N)N(C)C2=O)cn1CCF (stereo not shown) [Example 199] | 6.00 to 6.96 | 137 to 140
CN1C(=O)C(c2cccc(-c3cncnc3)c2)(c2cnn(CC(F)(F)F)c2)N=C1N (stereo not shown) [Example 89] | 6.00 to 6.96 | 223 to 225
CCn1cc(C2(c3cccc(-c4cccnc4F)c3)N=C(N)N(C)C2=O)cc1C(=O)N(C)C (stereo not shown) [Example 165] | 6.00 to 6.96 | > 200
CCC(=O)c1cc(C2(c3cccc(OCC(C)C)c3)N=C(N)N(C)C2=O)cn1CC (stereo not shown) [Example 138] | 7.00 to 8.00 | 78
CC(C)Cn1cc(C2(c3cccc(-c4cccnc4F)c3)N=C(N)N(C)C2=O)cn1 (stereo not shown) [Example 3, 2-Amino-5-[3-(2-fluoropyridin-3-yl)phenyl]-5-(1-isobutyl-1H-pyrazol-4-yl)-3-methyl-3,5-dihydro-4H-imidazol-4-one] | 7.00 to 8.00 | 94 to 98
CN1C(=O)C(c2cccc(-c3cccnc3F)c2)(c2cnn(CCF)c2)N=C1N (stereo not shown) [Example 68, 2-amino-5-[1-(2-fluoroethyl)-1H-pyrazol-4-yl]-5-[3-(2-fluoropyridin-3-yl)phenyl]-3-methyl-3,5-dihydro-4H-imidazol-4-one] | 7.00 to 8.00 | 195 to 197
CCC(=O)c1cc(C2(c3cccc(-c4cccnc4F)c3)N=C(N)N(C)C2=O)cn1CC (stereo not shown) [Example 155] | 7.00 to 8.00 | 126 to 128
CCn1cc([C@]2(c3cccc(-c4cccnc4F)c3)N=C(N)N(C)C2=O)cc1C(C)=O [Example 187, (5S)-5-(5-Acetyl-1-ethyl-1H-pyrrol-3-yl)-2-amino-5-[3-(2-fluoropyridin-3-yl)phenyl]-3-methyl-3,5-dihydro-4H-imidazol-4-one] | 7.00 to 8.00 | 109 to 111
CCCn1cc(C2(c3cccc(-c4cccnc4F)c3)N=C(N)N(C)C2=O)cc1C#N (stereo not shown) [Example 230] | 7.00 to 8.00 | 187 to 188
CCn1cc(C2(c3cccc(-c4cccnc4F)c3)N=C(N)N(C)C2=O)cc1C(=O)NC (stereo not shown) [Example 157] | 7.00 to 8.00 | 138 to 140
CN1C(=O)C(c2cccc(-c3cccnc3F)c2)(c2cnn(CCC(C)(C)C)c2)N=C1N (stereo not shown) [Example 101] | 7.00 to 8.00 | 100 to 103
CCC(=O)c1cc(C2(c3cccc(-c4cccc(OC)c4)c3)N=C(N)N(C)C2=O)cn1CC(F)(F)F (stereo not shown) [Example 202] | 7.00 to 8.00 | 103 to 105
COc1ccc(C2(c3ccc(-c4ccc(F)cc4)s3)N=C(N)N(C)C2=O)cc1C (stereo not shown) [Example 110, 2-Amino-5-[5-(4-fluorophenyl)thien-2-yl]-5-(4-methoxy-3-methylphenyl)-3-methyl-3,5-dihydro-4H-imidazol-4-one] | 6.00 to 6.96 | 110
CCC(=O)c1cc(C2(c3cccc(-c4cccnc4F)c3)N=C(N)N(C)C2=O)cn1Cc1cscn1 (stereo not shown) [Example 182] | 7.00 to 8.00 | 116 to 120

Compound | pIC50 [1] | melting point [°C]
CCCCOc1cccc(C2(c3cc(C(=O)CC)n(CC)c3)N=C(N)N(C)C2=O)c1 (stereo not shown) [Example 136] | 6.00 to 6.96 | 76
Cc1nn(CC(F)(F)F)cc1C1(c2cccc(-c3cccnc3F)c2)N=C(N)N(C)C1=O (stereo not shown) [Example 11, 2-Amino-5-[3-(2-fluoropyridin-3-yl)phenyl]-3-methyl-5-[3-methyl-1-(2,2,2-trifluoroethyl)-1H-pyrazol-4-yl]-3,5-dihydro-4H-imidazol-4-one] | 6.00 to 6.96 | 128 to 132
CCC(=O)c1cc(C2(c3cccc(OCC4CC4)c3)N=C(N)N(C)C2=O)cn1CC (stereo not shown) [Example 137] | 7.00 to 8.00 | 86
COC(=O)c1cc([C@]2(c3ccc(F)c(-c4cccnc4F)c3)N=C(N)N(C)C2=O)cn1CCF [Example 184A, Methyl 4-{(4S)-2-amino-4-[4-fluoro-3-(2-fluoropyridin-3-yl)phenyl]-1-methyl-5-oxo-4,5-dihydro-1H-imidazol-4-yl}-1-(2-fluoroethyl)-1H-pyrrole-2-carboxylate] | 7.00 to 8.00 | 111 to 113
CN1C(=O)C(c2cccc(-c3cccnc3F)c2)(c2cc(C#N)n(C)c2)N=C1N (stereo not shown) [Example 226] | 6.00 to 6.96 | 213 to 220
CCC(=O)c1cc([C@]2(c3ccc(F)c(-c4cccnc4F)c3)N=C(N)N(C)C2=O)cn1CC [Example 183A, (5S)-2-Amino-5-(1-ethyl-5-propionyl-1H-pyrrol-3-yl)-5-[4-fluoro-3-(2-fluoropyridin-3-yl)phenyl]-3-methyl-3,5-dihydro-4H-imidazol-4-one] | 7.00 to 8.00 | 114 to 116
CCn1cc(C2(c3cccc(-c4cccnc4F)c3)N=C(N)N(C)C2=O)cc1C(=O)C(C)C (stereo not shown) [Example 173] | 7.00 to 8.00 | 85 to 88
CCn1ccc(C2(c3cccc(-c4cncnc4)c3)N=C(N)N(C)C2=O)c1 (stereo not shown) [Example 52, 2-amino-5-(1-ethyl-1H-pyrrol-3-yl)-3-methyl-5-(3-pyrimidin-5-ylphenyl)-3,5-dihydro-4H-imidazol-4-one] | 6.00 to 6.96 | 100 to 102
COC(=O)c1cc(C2(c3cccc(-c4cccc(C#N)c4)c3)N=C(N)N(C)C2=O)cn1CCF (stereo not shown) [Example 194] | 7.00 to 8.00 | 98 to 101
CN1C(=O)C(c2cccc(-c3cc(F)ccc3F)c2)(c2cnn(CC(F)(F)F)c2)N=C1N (stereo not shown) [Example 84] | 6.00 to 6.96 | 98 to 100
CCCNC(=O)c1cc(C2(c3cccc(-c4cccnc4F)c3)N=C(N)N(C)C2=O)cn1CC (stereo not shown) [Example 159] | 6.00 to 6.96 | 120 to 123
COc1cccc(-c2cc(C3(c4cnn(C(C)C)c4)N=C(N)N(C)C3=O)ccc2F)c1 (stereo not shown) [Example 98] | 7.00 to 8.00 | 112 to 114
CCn1cc(C2(c3ccc(F)c(-c4cccnc4F)c3)N=C(N)N(C)C2=O)cc1S(C)(=O)=O (stereo not shown) [Example 188, 2-Amino-5-[1-ethyl-5-(methylsulfonyl)-1H-pyrrol-3-yl]-5-[4-fluoro-3-(2-fluoropyridin-3-yl)phenyl]-3-methyl-3,5-dihydro-4H-imidazol-4-one] | 7.00 to 8.00 | 193 to 195
COC(=O)c1cc(C2(c3ccc(F)c(-c4cncnc4)c3)N=C(N)N(C)C2=O)cn1CC(F)(F)F (stereo not shown) [Example 121] | 7.00 to 8.00 | 182 to 184
CN1C(=O)C(c2cccc(-c3cncnc3)c2)(c2cnn(CCC3CCCCC3)c2)N=C1N (stereo not shown) [Example 107] | 7.00 to 8.00 | 102 to 105
CN1C(=O)C(c2cccc(-c3cncnc3)c2)(c2ccn(CC(F)(F)F)c2)N=C1N (stereo not shown) [Example 54] | 6.00 to 6.96 | 103 to 105
CC(C)Cn1cc(C2(c3cccc(-c4cncnc4)c3)N=C(N)N(C)C2=O)cn1 (stereo not shown) [Example 5, 2-Amino-5-(1-isobutyl-1H-pyrazol-4-yl)-3-methyl-5-(3-pyrimidin-5-ylphenyl)-3,5-dihydro-4H-imidazol-4-one] | 7.00 to 8.00 | 118 to 122
CCN(CC)Cc1cc(C2(c3cccc(-c4cccnc4F)c3)N=C(N)N(C)C2=O)cn1CCF (stereo not shown) [Example 235, 2-Amino-5-[5-[(diethylamino)methyl]-1-(2-fluoroethyl)-1H-pyrrol-3-yl]-5-[3-(2-fluoropyridin-3-yl)phenyl]-3-methyl-3,5-dihydro-4H-imidazol-4-one] | < 6.00 | 121 to 140
CCC(C)C(=O)c1cc(C2(c3cccc(-c4cccnc4F)c3)N=C(N)N(C)C2=O)cn1CC (stereo not shown) [Example 174] | 7.00 to 8.00 | 210 to 211
CCCCn1cc(C2(c3cccc(-c4cccnc4F)c3)N=C(N)N(C)C2=O)cn1 (stereo not shown) [Example 4, 2-Amino-5-(1-butyl-1H-pyrazol-4-yl)-5-[3-(2-fluoropyridin-3-VI)phenyl]-3-methyl-3,5-dihydro-4H-imidazol-4-one] | 7.00 to 8.00 | 88 to 92
